In test [1] the test system is LTB4 production in rat polymorphonuclear cells. The experiment in a line: Ex vivo inhibition of LTB4 production (LTB4 biosynthesis). The settings on record: for IC50: Rattus norvegicus, read-out: Inh. of LTB4 biosynth., IC50; for Inh. of LTB4 biosynth., %: at 30 μg (%/μg). Format: cell-based.
The test system of test [2] is peroxidation of lipids from the hepatic cells membranes. The experiment in a line: Antioxidant effect in vitro. Format: biochemical. The settings on record: at 100 μg. The source says:
Antioxidant Effect in vitro
The end-product, malonic dialdehyde, was transformed to coloured complex with thiobarbituric acid and determined spectrophotometrically. The antioxidant effect was expressed in % of peroxidation inhibition in the presence of the compound tested in comparison to a control sample.

A further test relates to rats. The experiment in a line: Inhibition of carrageenan-induced pleuritis in rats. The settings on record: dose 100 mg/kg, oral, values with mark n: p > 0.05; for inhibition in vivo at 100 mg/kg: Rattus norvegicus, po, 4 h. Format: in vivo. Summed up: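 Rats given test drug as single oral dose 1 h before intrapleural 0.5% carrageenan (1 ml) under light ether anaesthesia. Pleural exudate collected 4 h later; volume, cellularity and total cell count measured.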

Another test has as its system male mice. The experiment in a line: Inhibition of arachidonic acid-induced ear inflammation in mice. The class given is in vivo. The settings on record: for inhibition in vivo at 200 mg/kg: Mus musculus, po, 1 h. The gist of the method:
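Compounds given orally 1 h before ear inflammation was induced in male mice with 20 µl arachidonic acid in acetone (100 mg/ml). Animals killed 1 h after induction. Ear hyperemia and ear-lobe weight assessed against the vehicle-treated contralateral ear.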

The target in the next test is T1, LTD4 receptor (Cavia porcellus, UniProt Q2NNR5).
T1 construct: The membrane fraction was prepared from male guinea-pig lungs; from tissue; host or cells: male guinea-pig lung membranes
T1 sequence (Q2NNR5 1-340): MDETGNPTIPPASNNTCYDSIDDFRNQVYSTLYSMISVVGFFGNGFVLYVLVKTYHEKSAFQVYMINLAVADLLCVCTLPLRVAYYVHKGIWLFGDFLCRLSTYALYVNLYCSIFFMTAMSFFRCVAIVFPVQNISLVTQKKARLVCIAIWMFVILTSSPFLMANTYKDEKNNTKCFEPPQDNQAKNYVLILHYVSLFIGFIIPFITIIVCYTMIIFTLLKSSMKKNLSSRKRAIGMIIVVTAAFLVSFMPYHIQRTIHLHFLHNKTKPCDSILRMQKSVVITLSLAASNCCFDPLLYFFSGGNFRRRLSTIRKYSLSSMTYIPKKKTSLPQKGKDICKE
The experiment in a line: LTD4 receptor binding study. The settings on record: 3H-LTD4, guinea-pig lung membranes; for IC50: read-out: Inh. of LTD4 rec. binding, IC50. The gist of the method:
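Guinea-pig lung membranes (male animals) were incubated with 0.4 nM ³H-LTD4 for 60 min at 25 °C. Nonspecific binding was defined with 0.1 μM LTD4. Bound radioactivity was measured after filtration and washing.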

For test [3], the system named is bronchospasm induced by LTD4. The experiment in a line: Inhibition of bronchospasm induced by LTD4. Format: in vivo. The settings on record: for Inhibition of bronchospasm induced by LTD4, % of inhibition: dose 100 mg/kg. How it is done:
(§1) Inhibition of Allergic Bronchospasm Induced by […] (Compound 48/80 or Ovalbumin, Respectively)
(§2) The modified method of Kreutner W. et al (Krelutner W. et al.: Agents Actions 28, 253 (1989)) was used. Bronchoconstrictioin was induced by intravenous injection of 1 μg/kg LTD4 (3 mg/kg of compound […] or 0.35 mg/kg of ovalbumin, respectively). In the case of oval-bumin, the animals were senzitized by intraperitoneal injection of ovalbumin (100 mg/kg) 14 days before induction. The compounds tested were applied 5 min before the administration of the inductor; the vehiculum used for the application of compound tested was administered to the control group of animals. The tracheal pressure was determined in the intervals of 2, 4 and 10 minutes after induction. The effect was expressed in percentage inhibition of bronchospasm relative to the untreated control.

Another test addresses LTB4 receptor (Cavia porcellus, UniProt H0VYV8). The experiment in a line: LTB4 receptor binding study. The settings on record: 3H-LTB4, guinea-pig spleen membranes; for IC50: read-out: Inh. of LTB4 rec. binding, IC50; for inhibition at 20 µM: read-out: Inh. of LTB4 rec. binding, %. Summed up: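 Male guinea-pig spleen membranes (2 mg) incubated with 0.3 nM ^3H-LTB4 for 30 min at 25 °C; nonspecific binding defined with 0.1 μM LTB4. Bound ligand collected by GF/C filtration, counted by liquid scintillation to give specific binding.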

The subject of test [4] is bronchospasm induced by ovalbumin. The experiment in a line: Inhibition of bronchospasm induced by ovalbumin. The class given is in vivo. The settings on record: for Inhibition of bronchospasm induced by ovalbumin, % of inhibition: dose 100 mg/kg. How it is done: as §1, §2
The subject of a further test is Wistar-Han rats. The experiment in a line: Inhibition of carrageenan edema. The class given is in vivo. The settings on record: dose 100 mg/kg; for inhibition in vivo at 100 mg/kg: Rattus norvegicus, read-out: CE: inhibition of carrageenan-induced edema, % of inh.
[5] abbreviates: read-out: Experimental pleuritis, A: volume of exudate in pleural cavity, % of inh.
The mark [6] stands for this setting: read-out: Experimental pleuritis, B: number of cells, % of inh.
[7] abbreviates: read-out: Experimental pleuritis, C: cellularity in a volume unit, % of inh.
The mark [8] stands for this setting: values with mark n: p > 0.05, read-out: Ear edema, D: edema of ear lobe, % of inh.
[9] abbreviates: values with mark n: p > 0.05, read-out: Ear edema, E: hyperemia of ear lobe, % of inh.
The mark [10] stands for this setting: read-out: Inh. of LTD4 rec. binding, %.
Where [11] appears, read: dose 200 mg/kg, oral, values with mark n: p > 0.05, 200 mg/kg.

In brackets after ≈: the same amount, converted by molar mass. Counter-ions that a name gives are not always drawn. Like-named read-outs stand apart in the source and are kept apart here.

Sequence of LTB4 receptor (H0VYV8 1-348): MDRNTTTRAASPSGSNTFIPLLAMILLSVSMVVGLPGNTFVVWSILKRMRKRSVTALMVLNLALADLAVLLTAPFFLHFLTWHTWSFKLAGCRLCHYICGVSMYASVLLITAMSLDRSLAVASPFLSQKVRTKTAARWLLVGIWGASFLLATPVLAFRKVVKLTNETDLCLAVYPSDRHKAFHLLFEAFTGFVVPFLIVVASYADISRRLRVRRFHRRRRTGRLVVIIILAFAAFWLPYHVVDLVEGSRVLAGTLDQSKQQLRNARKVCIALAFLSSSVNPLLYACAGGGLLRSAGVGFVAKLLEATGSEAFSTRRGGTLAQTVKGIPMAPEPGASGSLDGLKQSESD

Consider `O=C(O)c1ccc(Sc2ccc(OCc3ccc4cc(Cl)ccc4n3)cc2)cc1` [Compound 22, 4-(4-(6-Chloroquinoline-2-ylmethoxy)phenylsulfanyl)benzoic Acid], for which the IC50 (usually the point on the concentration scale where inhibition reaches its midpoint) in [1] stood at 0.07 µg/mL (≈ 0.166 µM); on LTD4 receptor, 3.8 µM; on LTB4 receptor, 50 µM. In addition, the “Inh. of LTB4 biosynth., %” value in test [1] is 97%. Moreover, the “Antiox. effect, % of peroxidation inhibition” value in [2] came to 13%. Further, the inhibition in vivo at 100 mg/kg in the test on rats (setting [5]) is 10%; with rats (setting [6]), 25%; with rats (setting [7]), 15%; in test [3] (2 min) it was 14%; in test [3] (4 min), 33%; in test [3] (10 min), 43%. The inhibition in vivo at 100 mg/kg in [4] (2 min) was determined as 3%; in test [4] (4 min), 15%; in test [4] (10 min), 30%; in the test with Wistar-Han rats it was 14%. The inhibition in vivo at 200 mg/kg in the test with male mice (setting [8]) was 1%; in the test with male mice (setting [9]) it was 9%. For the same compound, on LTD4 receptor (setting [10]), the inhibition at 100 µM was 84%. Moreover, the inhibition at 20 µM at LTB4 receptor (at 20 μM) is 22%.
For the compound `O=C(O)c1ccccc1Sc1cccc(OCc2ccc3ccccc3n2)c1` [Compound 17, 2-(3-(Quinoline-2-ylmethoxy)phenylsulfanyl)benzoic Acid], the IC50 was 0.08 µg/mL (≈ 0.206 µM) in test [1], 0.63 µM on LTD4 receptor and 44.2 µM on LTB4 receptor. Also, in test [1], the “Inh. of LTB4 biosynth., %” value was found to be 100%. In addition, the “Antiox. effect, % of peroxidation inhibition” value in [2] is recorded as 4%. Besides, the inhibition in vivo at 100 mg/kg with rats (setting [5]) is 5%; in the test on rats (setting [6]), 20%; with rats (setting [7]) it was 15%; in test [3] (2 min), 11%; in test [3] (4 min), 28%; in test [3] (10 min), 23%. Also, the inhibition in vivo at 100 mg/kg in [4] (2 min) was 23%; in [4] (4 min) it was 36%; in test [4] (10 min) it was 50%; in the test with Wistar-Han rats, 19%. Also, the inhibition in vivo at 200 mg/kg with male mice (setting [8]) is 16%; in the test with male mice (setting [9]) it was 3%. Also, the inhibition at 100 µM on LTD4 receptor (setting [10]) worked out at 100%. In addition, the inhibition at 20 µM on LTB4 receptor (at 20 μM) was 38%.
As to `CON1CC/C(=C\c2cc(C(C)(C)C)c(O)c(C(C)(C)C)c2)C1=O` [E 5110, reference compound], the results for the “Inhibition of bronchospasm induced by LTD4, % of inhibition” value in [3] (2 min), in test [3] (4 min) and in [3] (10 min) were 45%, 55% and 58%, respectively. Also, the “Inhibition of bronchospasm induced by ovalbumin, % of inhibition” value in [4] (2 min) is recorded as 74%; in test [4] (4 min) it was 71%; in [4] (10 min), 69%.
Turning to `CC(c1cc2ccccc2s1)N(O)C(N)=O` (centres unmarked) [Zileuton, reference compound], the IC50 in test [1] amounted to 0.17 µg/mL (≈ 0.719 µM). Also, the “Inh. of LTB4 biosynth., %” value in test [1] worked out at 100%. Further, the inhibition in vivo at 100 mg/kg is 36% in the test on rats (setting [5]); 49% in the test with rats (setting [6]); 20% in the test on rats (setting [7]); 10% in test [3] (2 min); 54% in test [3] (4 min); 75% in [3] (10 min). Moreover, the inhibition in vivo at 100 mg/kg stood at 23% in test [4] (2 min), 28% in test [4] (4 min), 50% in test [4] (10 min) and 46% in the test on Wistar-Han rats. For the same compound, the inhibition in vivo at 200 mg/kg in the test on male mice (setting [8]) was determined as 9%; in the test on male mice (setting [9]) it was 13%. The inhibition at 100 µM on LTD4 receptor (setting [10]) stood at 7%. In addition, the inhibition at 20 µM at LTB4 receptor (at 20 μM) stood at 28%.
For `CCCc1c(OCCCCOc2cccc(Sc3ccc(C(=O)O)cc3)c2)ccc(C(C)=O)c1O` [Compound 8, 4-(3-(4-(4-Acetyl-3-hydroxy-2-propylphenoxy)butoxy)phenylsulfanyl)benzoic Acid], the results for the IC50 (in [1]; at LTD4 receptor; at LTB4 receptor) were 0.52 µg/mL (≈ 1.05 µM), 39.3 µM and 3.7 µM, respectively. For the same compound, the “Inh. of LTB4 biosynth., %” value in test [1] turned out to be 100%. For the same compound, in test [2], the “Antiox. effect, % of peroxidation inhibition” value came out at 22%. In addition, the inhibition in vivo at 100 mg/kg is 7% in the test with rats (setting [5]); 18% in the test with rats (setting [6]); 11% in the test on rats (setting [7]); 98% in test [3] (4 min); 24% in the test on Wistar-Han rats. For the same compound, the inhibition in vivo at 200 mg/kg with male mice (setting [8]) was 1%; in the test with male mice (setting [9]), 9%. The inhibition at 100 µM at LTD4 receptor (setting [10]) is 69%. For the same compound, the inhibition at 20 µM at LTB4 receptor (at 20 μM) was 100%.
For the compound `CCCc1c(OCCCOc2cccc(Sc3ccc(C(=O)O)cc3)c2)ccc(C(C)=O)c1O` [Compound 5, 4-(3-(3-(4-Acetyl-3-hydroxy-2-propylphenoxy)propoxy)phenylsulfanyl)benzoic Acid], the values for the IC50 (in test [1]; on LTD4 receptor; on LTB4 receptor) were 0.05 µg/mL (≈ 0.104 µM), 15.1 µM and 9.6 µM, respectively. The “Inh. of LTB4 biosynth., %” value in [1] was 100%. Further, the “Antiox. effect, % of peroxidation inhibition” value in test [2] came to 75%. The inhibition in vivo at 100 mg/kg in the test with rats (setting [5]) came to 10%; in the test on rats (setting [6]) it was 46%; with rats (setting [7]) it was 61%; in test [3] (4 min), 16%; in the test with Wistar-Han rats, 14%. Also, the inhibition in vivo at 200 mg/kg is 1% with male mice (setting [8]) and 0% in the test on male mice (setting [9]). On LTD4 receptor (setting [10]), the inhibition at 100 µM was 97%. Moreover, the inhibition at 20 µM at LTB4 receptor (at 20 μM) turned out to be 65%.
`O=C(O)c1ccccc1Sc1cccc(OCc2ccc3cc(Cl)ccc3n2)c1` [Compound 23, Tromethammonium salt of 2-(3-(6-Chloroquinoline-2-ylmethoxy)phenyl-sulfanyl)benzoic Acid]: in [1], the “Inh. of LTB4 biosynth., IC50” value came to 0.96 µg/mL and the “Inh. of LTB4 biosynth., %” value is 96%. The “Antiox. effect, % of peroxidation inhibition” value in test [2] is recorded as 9%. Besides, in the test on rats (100 mg/kg), the “Experimental pleuritis, A: volume of exudate in pleural cavity, % of inh.” value was 17%; the “Experimental pleuritis, B: number of cells, % of inh.” value is given as 31%; the “Experimental pleuritis, C: cellularity in a volume unit, % of inh.” value is listed as 17%. In addition, in the test with male mice (setting [11]), the “Ear edema, D: edema of ear lobe, % of inh.” value is reported as 1 (s) % and the “Ear edema, E: hyperemia of ear lobe, % of inh.” value amounted to 8%. Also, the IC50 at LTD4 receptor was 0.1 µM. In addition, the inhibition at 20 µM on LTD4 receptor (at 20 μM, read-out: Inh. of LTD4 rec. binding, %) was found to be 99%. Besides, on LTB4 receptor, the IC50 came to 13.5 µM. Besides, the “Inh. of LTB4 rec. binding, %” value on LTB4 receptor (at 20 μM) worked out at 33%. In the test with Wistar-Han rats, the “CE: inhibition of carrageenan-induced edema, % of inh.” value was determined as 50%.
